Test system: male-sterile F1 transgenic plants (CKX1)
Test: Fertility restoration: tassel fertility rating after TDZ and kinetin applications
Type: in vivo, corn
Design: key: 0: No or very little floral development; x: Advanced floral development observed in some areas of tassels; xx: Increased areas of advanced floral development and anthersis observed in some flowers
Conditions: 0.25% Sylgard 309
Method: Two commercially registered chemicals were tested in fertility restoration experiments. Kinetin is a synthetic cytokinin that is not oxidized by CKX1 and TDZ is a known cytokinin oxidase inhibitor. The F1 seeds from the crosses between wild-type plants and several male-sterile R0 events were planted. NPTII ELISA positive plants were identified as the male-sterile transgenic plants among F1 segregating populations by enzyme-linked immunosorbent assays (ELISA, Example 3) performed on leaf samples collected at the seedling stage of all plants. Identified plants were treated at the V4, V7 and V10 stages. The application rates for each plant were 0, 10, 20, 30, and 100 mg of kinetin with or without 3 mg of TDZ in the presence of 0.25% of Sylgard 309 surfactant (Willbur-Ellis, Fresno, Calif.). One to three plants were tested at a particular rate combination.
The NPTII ELISA tests were thus used to select male sterile F1 transgenic plants for chemical treatments. […] These chemical application conditions were not sufficient to produce fully fertile plants. The degree of floral development restoration varied and was limited to older tissues of the tassel. […] Table 3 details tassel fertility rating of the restoration study.
Two to three transgenic F1 plants were used in each treatment group. Plants were either treated repeatedly in three different rates at three V4, V7 and V10 developmental stages or once in a higher rate at V7 developmental stage. Rates are indicated by mg/plant of TDZ and kinetin, respectively, in the presence of 0.25% of Sylgard 309 surfactant. The fertility rating was based on the visual observation. 0, No or very little floral development; x, Advanced floral development observed in some areas of tassels; xx, Increased areas of advanced floral development and anthersis observed in some flowers.

Measured: tassel fertility rating

c1coc(CNc2ncnc3[nH]cnc23)c1 [kinetin]
0: line 16400, TDZ 0, kinetin 20 mg/plant, applications at V4 + V7 + V10 | line 16400, TDZ 0, kinetin 100 mg/plant, application at V7 | line 16409, TDZ 0, kinetin 20 mg/plant, applications at V4 + V7 + V10 | line 16409, TDZ 0, kinetin 100 mg/plant, application at V7 | line 16802, TDZ 0, kinetin 20 mg/plant, applications at V4 + V7 + V10 | line 16802, TDZ 0, kinetin 100 mg/plant, application at V7 | line 16825, TDZ 0, kinetin 20 mg/plant, applications at V4 + V7 + V10 | line 16825, TDZ 0, kinetin 100 mg/plant, application at V7 | line 16832, TDZ 0, kinetin 20 mg/plant, applications at V4 + V7 + V10 | line 16832, TDZ 0, kinetin 100 mg/plant, application at V7
